Assay results reported in patent US10314917B2, “Targeted polymeric inflammation-resolving nanoparticles” (The Brigham and Women's Hospital, Inc., priority 2014, dated 2019).
Where no end group is shown, it is not given here.

Columns and labels:
[1] = test system: zymosan-stimulated PMN infiltration; assay: In vivo murine zymosan-induced peritonitis; parameters: species or system C57BL/6J mice; details: 100 ng/mouse i.v.; exudates 4 h post zymosan
Procedure: A model of self-limited peritonitis was used to quantitatively assess resolution in vivo to determine whether the developed NPs containing Ac2-26 are anti-inflammatory and/or pro-resolving (Bannenberg 2005; Schwab 2007). Zymosan A was administered to C57BL/6J mice. In parallel, mice were then given vehicle, empty NPs as control, Ac2-26 in NPs, Scrm Ac2-26 in NPs, Ac2-26 native peptides described in detail below. Equal polymer concentration was loaded in both the NPs and Ac2-26 NPs.
1 ml of zymosan A (100 μg/mouse) in 1 ml of sterile saline was administered to female C57BL/6J mice (6-8 wk old, Charles River Laboratories, Wilmington, Mass., USA) to induce peritonitis (Bannenberg et al. J Immunol 174(7):4345-4355 (2005); Norling, et al. (2011) J Immunol 186(10):5543-5547). […]
For baseline PMN number measurements, mice were euthanized at selected time intervals (4, 12, or 24 hours post zymosan stimulation), with an overdose of isofluorane, following which peritoneal exudates were collected by lavaging with Ca^2+/Mg^2+ free phosphate buffered saline (PBS^−/−, 5 ml). Leukocytes were counted with a hemocytometer.
Peritoneal exudates were harvested 4 h post zymosan initiation, and living cells were quantified using trypan blue exclusion.
Differential cell counts were assessed via flow cytometry using an LSRII flow cytometer. […]

[2] = test system: liver macrophage infiltration; details: during dietary intervention; P<0.01; cited from earlier work
MCP-1 and TNFα = MCP-1 and TNFα production in LPS-activated peritoneal macrophages (ELISA); format: cell-based, murine; details: equivalent dose of GW3965
Procedure: Experiments were conducted to assess the in vitro anti-inflammatory effects of GW3965-containing NPs and their ability to regulate LXR target gene expression such as ABCA1 and SREBP-1c. LPS-activated peritoneal macrophages were treated with the indicated NPs containing equivalent doses of GW3965. The supernatant was collected for ELISA analysis of MCP-1 and TNFα. The cells were collected for RT-qPCR analysis of MCP-1 and TNFα mRNA as described below.
In the next set of experiments, GW3965-containing NPs were evaluated to see if they are able to exert anti-inflammatory effects on macrophages. Isolated murine peritoneal macrophages were first treated with lipopolysaccharide (LPS) to induce the production of pro-inflammatory factors such as MCP-1 and TNFα. The activated macrophages were then treated with an equivalent dose of GW3965 in either solution or NP form. ELISA assay was performed on the culture supernatant to determine the production of MCP-1 and TNFα.

[3] = test system: atherosclerotic lesion area; assay: Atheroprotective effect in plaque-bearing LDLr−/− mice (lesion area, Oil Red O); format: in vivo; details: 8 mg/kg GW3965 daily i.v. for 14 days
Procedure: To explore the atheroprotective effects of these NPs, plaque-bearing LDLr−/− mice were randomly divided into five groups and treated with the following regimens with equivalent doses of 8 mg/kg entrapped GW3965 via daily intravenous administration for 14 consecutive days: i) empty PLGA-b-PEG NP without GW3965 (control); ii) GW3965 in solution form; iii) CNP; iv) TNPLyP-1; and v) TNPCREKA. The aim of this study was to determine whether GW3965-containing NPs would result in inhibition of atherosclerosis development and whether peptide conjugation would improve the delivery efficacy of GW3965.

## Ac2-26 peptide: annexin A1 N-terminal mimetic peptide that acts on the formyl peptide receptor ALX/FPR2 (Ac-AMVSEFLKQAWFIENEEQEYVQTVK; UniProt P04083 2-26, looked up, fragment)
[1]
  blockade of zymosan-stimulated PMN infiltration: approximately 30%

## CC/C=C\C[C@H](O)/C=C/C=C\C=C\C=C\[C@@H](O)[C@@H](O)C/C=C\CCC(=O)O [RvD1]
[2]
  liver macrophage infiltration (change): −15%

## O=C(O)Cc1cccc(OCCCN(Cc2cccc(C(F)(F)F)c2Cl)CC(c2ccccc2)c2ccccc2)c1 [GW3965, 3-(3-(2-chloro-3-trifluoromethylbenzyl-2,2diphenylethylamino)proproxy), phenylacetic acid]
MCP-1 and TNFα
  production of MCP-1 and TNFα proteins: substantially suppressed
[3]
  reduction in lesion area compared with controls: pronounced reduction
